In PubChem BioAssay (NCI):
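96-well plates; 48 h exposure; 5 concentrations. Endpoints by linear interpolation between flanking doses. Not reached: highest tested concentration assigned. At the TGI there is no net growth.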

Experiments:
Assay in all cases: inhibition of tumour cell growth, NCI panel, 48 h
MDA-MB-231 breast = system: MDA-MB-231 breast
NCI-H226 lung = system: NCI-H226 lung
BT-549 breast = system: BT-549 breast
IGROV1 ovarian = system: IGROV1 ovarian
RXF 393 renal = system: RXF 393 renal
MDA-MB-435 = system: MDA-MB-435
CCRF-CEM leukemia = system: CCRF-CEM leukemia
MCF7 breast = system: MCF7 breast
CAKI-1 renal = system: CAKI-1 renal
KM12 colon = system: KM12 colon
T-47D breast = system: T-47D breast
A498 renal = system: A498 renal
HT29 colon = system: HT29 colon
DU-145 prostate = system: DU-145 prostate
HCT-116 colon = system: HCT-116 colon
HOP-92 NSCLC = system: HOP-92 NSCLC
EKVX NSCLC = system: EKVX NSCLC
K-562 leukemia = system: K-562 leukemia

Row | SMILES | TGI (MDA-MB-231 breast) | TGI (NCI-H226 lung) | TGI (BT-549 breast) | TGI (IGROV1 ovarian) | TGI (RXF 393 renal) | TGI (MDA-MB-435) | TGI (CCRF-CEM leukemia) | TGI (MCF7 breast) | TGI (CAKI-1 renal) | TGI (KM12 colon) | TGI (T-47D breast) | TGI (A498 renal) | TGI (HT29 colon) | TGI (DU-145 prostate) | TGI (HCT-116 colon) | TGI (HOP-92 NSCLC) | TGI (EKVX NSCLC) | TGI (K-562 leukemia)
1 | C=CCOC1=C(OCC=C)C(C2COC(C)(C)O2)OC1=O (stereo not given) | > 100 µM | > 100 µM | > 100 µM | > 100 µM | > 100 µM | > 100 µM | > 100 µM | > 100 µM | 34.9 µM | > 100 µM | > 100 µM | > 100 µM | > 100 µM | > 100 µM | > 100 µM | 83.3 µM | > 100 µM | > 100 µM
2 | CCOC(=O)c1cc(C2CCN(CC(C)CC)C2=S)c(-c2cc(C)no2)[nH]1 (stereo not given) | > 100 µM | > 100 µM | > 100 µM | > 100 µM | > 100 µM | > 100 µM | > 100 µM | > 100 µM | > 100 µM | > 100 µM | > 100 µM | > 100 µM | > 100 µM | > 100 µM | > 100 µM | > 100 µM | > 100 µM | > 100 µM
3 | O=C(N/N=C/c1ccc([N+](=O)[O-])cc1)c1cccc2nc3ccccc3nc12 | > 100 µM | > 100 µM | > 100 µM | > 100 µM | > 80.7 µM | > 100 µM | > 100 µM | > 100 µM | > 100 µM | > 100 µM | > 100 µM | > 100 µM | > 100 µM | > 100 µM | > 100 µM | > 87.3 µM | > 100 µM | > 100 µM
4 | C=C1CCC2CC1[C@@H](C(=O)c1c[nH]c3ccccc13)NC2(C)C (stereo not given in full) | > 37.5 µM | > 37.5 µM | > 37.5 µM | > 37.5 µM | > 37.5 µM | > 37.5 µM | > 37.5 µM | > 37.5 µM | > 37.5 µM | > 37.5 µM | > 37.5 µM | > 37.5 µM | > 37.5 µM | > 37.5 µM | > 37.5 µM | 31 µM | > 37.5 µM | > 37.5 µM
5 | Cc1nc(-n2[nH]c(C)c(CCO)c2=O)[nH]c(=O)c1CCO | > 100 µM | > 100 µM | > 100 µM | > 100 µM | > 100 µM | > 100 µM | > 100 µM | > 100 µM | > 100 µM | > 100 µM | > 100 µM | > 100 µM | > 100 µM | > 100 µM | > 100 µM | > 100 µM | > 100 µM | > 100 µM
6 | CC(=O)OC1COC(n2nc(/C=C/c3ccc(Cl)cc3)c(=O)n(/N=C/c3ccccc3)c2=S)C(OC(C)=O)C1OC(C)=O (stereo not given) | > 100 µM | > 100 µM | > 100 µM | > 100 µM | > 100 µM | > 100 µM | > 100 µM | > 100 µM | > 100 µM | > 100 µM | > 100 µM | > 100 µM | > 100 µM | > 100 µM | > 100 µM | > 100 µM | > 100 µM | > 100 µM
7 | CCOP(=O)(OCC)/C(C#N)=C/c1ccc(-c2ccc(F)cc2F)o1 | 36.6 µM | 36 µM | 24.5 µM | 34.6 µM | > 100 µM | 27 µM | 38.7 µM | 43 µM | 28.6 µM | 31.6 µM | 8.35 µM | 28.8 µM | 33.1 µM | 42.5 µM | 32.3 µM | 35.7 µM | 31 µM | 38.1 µM
8 | O=c1[nH]/c(=C/c2ccc(OCc3ccccc3)cn2)c(=O)[nH]/c1=C/c1ccc(Cl)cc1 | > 100 µM | > 100 µM | > 100 µM | > 100 µM | > 28.3 µM | 0.796 µM | > 100 µM | > 100 µM | > 56.6 µM | > 100 µM | > 100 µM | 7.53 µM | > 100 µM | > 100 µM | > 100 µM | > 100 µM | > 100 µM | > 100 µM
9 | C(=C\c1nccs1)/c1cccc(/C=C/c2nccs2)n1 | > 50 µM | > 50 µM | > 50 µM | > 50 µM | > 50 µM | > 50 µM | > 50 µM | > 50 µM | > 50 µM | > 50 µM | > 50 µM | > 50 µM | > 50 µM | > 50 µM | > 50 µM | > 50 µM | > 50 µM | > 50 µM
10 | O=C(O)CCC(NC(=O)c1ccc(Nc2cnc3ccc(C(F)(F)F)cc3n2)cc1)C(=O)O (stereo not given) | > 100 µM | > 100 µM | > 100 µM | > 100 µM | > 100 µM | > 100 µM | > 100 µM | > 100 µM | > 100 µM | > 100 µM | > 100 µM | > 100 µM | > 100 µM | > 100 µM | > 100 µM | > 100 µM | > 100 µM | > 100 µM
11 | Cc1cccc2c(=O)c3c(O)cc(O)cc3[nH]c12 | > 10 µM | > 10 µM | > 10 µM | > 10 µM | > 10 µM | > 10 µM | > 10 µM | > 10 µM | > 10 µM | > 10 µM | > 10 µM | > 10 µM | > 10 µM | > 10 µM | > 10 µM | > 10 µM | > 10 µM | > 10 µM
12 | CC(C)C1OC2(C)OC(=N)C1(C#N)C(C#N)(C#N)C2C (stereo not given) | 31.8 µM | > 100 µM | > 100 µM |  | > 100 µM | > 100 µM | 51.4 µM | 41.7 µM | 22.8 µM | > 100 µM | 33.5 µM | > 100 µM | 41 µM | > 100 µM | 78.2 µM | 34.7 µM | 53.4 µM | > 100 µM
13 | O=C1NC(=S)NC(=O)C1C(c1ccc([N+](=O)[O-])cc1)C1C(=O)NC(=S)NC1=O | > 100 µM | > 100 µM | > 100 µM | > 100 µM | > 100 µM | > 100 µM | > 100 µM | > 100 µM | > 100 µM | > 100 µM | > 100 µM | > 100 µM | > 100 µM | > 100 µM | > 100 µM | > 100 µM | > 100 µM | > 100 µM
14 | COc1cc(Cn2c(=S)ss/c2=N\C(=S)N(C)C)cc(OC)c1OC | > 47.4 µM | > 71 µM | > 100 µM | > 96 µM | 29.5 µM | 15.8 µM | > 77.5 µM | > 100 µM | > 100 µM | 30.5 µM | > 100 µM | > 100 µM | > 100 µM | > 39.5 µM | > 70.7 µM | 56.3 µM | > 100 µM | > 100 µM
15 | CCCc1c(O)c(=O)c2c(OC)cc(OC)c3c4c(OC)cc(OC)c5c(=O)c(O)c(CCC)c(c1c23)c54 | 7.09 µM | 10.9 µM | 10.1 µM | 3.97 µM | 28 µM | 10.4 µM | 0.582 µM | 15.3 µM | 2.32 µM | 5.41 µM | 5.73 µM | 11.9 µM | 6.75 µM | 3.73 µM | 1.23 µM | 2.55 µM | 6.66 µM | 0.589 µM
16 | c1ccc(-c2cs[s+]c2)cc1 | > 100 µM | > 100 µM | > 100 µM | > 100 µM | > 100 µM | > 100 µM | 83.1 µM | > 100 µM | > 100 µM | > 100 µM | > 100 µM | > 100 µM | > 100 µM | > 100 µM | > 100 µM | > 100 µM | > 100 µM | > 100 µM
17 | COc1cc(/C=C/C(=O)OC2C(O)C3CC(OC(=O)c4cc(OC)c(OC)c(OC)c4)CC2N3C)cc(OC)c1OC (stereo not given) | > 50 µM | > 50 µM | > 50 µM | 39.8 µM | > 50 µM | > 50 µM | > 50 µM | > 50 µM | > 50 µM | > 50 µM | 43.7 µM | 17.7 µM | > 50 µM | > 50 µM | > 50 µM | > 50 µM | > 50 µM | > 50 µM
18 | CCCCCCCCCCCCCCCCCCNc1ccn(C2OC(CO)C(O)C2O)c(=O)n1 (stereo not given) | > 100 µM | > 100 µM | > 100 µM | > 92.2 µM | > 100 µM | > 100 µM | 30.4 µM | > 100 µM | > 100 µM | > 100 µM | > 100 µM | > 100 µM | > 100 µM | > 100 µM | > 100 µM | > 100 µM | > 100 µM | > 100 µM
19 | CC1=C(O)C(=O)C[C@]2(C)[C@H]3CC=C4[C@@H]5CC(C)(C)CC[C@@H]5C(=O)[C@H](O)[C@@]4(C)[C@]3(C)CC[C@@H]12 | > 50 µM | > 50 µM | > 50 µM | > 50 µM | 37.9 µM | > 50 µM | > 50 µM | > 50 µM | > 50 µM | > 50 µM | > 50 µM | > 50 µM | > 50 µM | > 50 µM | > 50 µM | 28.5 µM | > 50 µM | 
